Experimental data from patent US4243674A, “9-Hydroxydibenzo[b,d]pyrans and intermediates therefore” (priority 1978, dated 1981).

What was measured:
[1] = test system: hashish activity; conditions: Bergel et al. 1943, cited from earlier work
[2] = test system: phenylbenzoquinone-induced writhing; experiment: Suppression of phenylbenzoquinone irritant-induced writhing (PBQ); format: in vivo, Carworth Farms CF-1 mice; conditions: Mus musculus, mice, read-out: ANALGESIC ACTIVITY ED50, PBQ
Protocol: Test Using Chemical Nociceptive Stimuli
Suppression of Phenylbenzoquinone Irritant-Induced Writhing
Groups of 5 Carworth Farms CF-1 mice are pretreated subcutaneously or orally with saline, morphine, codeine or the test compound. Twenty minutes (if treated subcutaneously) or fifty minutes (if treated orally) later, each group is treated with intraperitoneal injection of phenylbenzoquinone, an irritant known to produce abdominal contractions. The mice are observed for 5 minutes for the presence or absence of writhing starting 5 minutes after the injection of the irritant. MPE50 's of the drug pretreatments in blocking writhing are ascertained.
(§1) Results of the above tests are recorded as percent maximum possible effect (% MPE). The % MPE of each group is statistically compared to the % MPE of the standard and the predrug control values. The % MPE is calculated as follows: [formula]
(§2) By means of the above procedures, the analgesic activity of several compounds of this invention and of certain prior art compounds are determined. The data are reported in terms of maximum possible effect.
(§3) PBQ=phenylbenzoquinone-induced writhing; TF=tail flick; HP=hot plate; RTC=rat tail clamp; FJ=flinch jump; and TI=tail immersion assays.

[3] = test system: flinch jump; experiment: Flinch-jump test (FJ); format: in vivo, male albino rats, Charles River (Sprague-Dawley) CD strain; conditions: Rattus norvegicus, rats, 2 hours, read-out: ANALGESIC ACTIVITY ED50, FJ 2 hours
Description: Tests Using Electrical Nociceptive Stimuli
A modification of the flinch-jump procedure of Tenen, Psychopharmacologia, 12, 278-285 (1968) is used for determining pain thresholds. Male albino rats (175-200 g.) of the Charles River (Sprague-Dawley) CD strain are used. Prior to receiving the drug, the feet of each rat are dipped into a 20% glycerol/saline solution. The animals are then placed in a chamber and presented with a series of 1-second shocks to the feet which are delivered in increasing intensity at 30-second intervals. These intensities are 0.26, 0.39, 0.52, 0.78, 1.05, 1.31, 1.58, 1.86, 2.13, 2.42, 2.72 and 3.04 mA. Each animal's behavior is rated for the presence of (a) flinch, (b) squeak and (c) jump or rapid forward movement at shock onset. Single upward series of shock intensities are presented to each rat just prior to, and at 0.5, 2, 4 and 24 hours subsequent to drug treatment.
as §1, §2, §3

[4] = test system: hot plate; experiment: Mouse hot plate analgesic testing (HP); format: in vivo, mice; conditions: Mus musculus; hot plate, mice
Protocol: (§4) Tests Using Thermal Nociceptive Stimuli
(a) Mouse Hot Plate Analgesic Testing
The method used is modified after Woolfe and MacDonald, J. Pharmacol. Exp. Ther., 80, 300-307 (1944). A controlled heat stimulus is applied to the feet of mice on a 1/8" thick aluminum plate. A 250 watt reflector infrared heat lamp is placed under the bottom of the aluminum plate. A thermal regulator, connected to thermistors on the plate surface, programs the heat lamp to maintain a constant temperature of 57° C. Each mouse is dropped into a glass cylinder (61/2" diameter) resting on the hot plate, and timing is begun when the animal's feet tough the plate. The mouse is observed at 0.5 and 2 hours after treatment when the test compound for the first "flicking"movements of one or both hind feet, or until 10 seconds elapse without such movements. Morphine has an MPE50 =4-5.6 mg./kg. (s.c.).
as §1, §2, §3

[5] = test system: tail immersion; experiment: Tail immersion procedure (TI); format: in vivo, male albino mice, Charles River CD-1 strain; conditions: Mus musculus, 0.5 h; tail immersion, mice, 1/2 hour; read-out: ANALGESIC ACTIVITY ED50, TI 1/2 hour
Protocol: (c) Tail Immersion Procedure
The method is a modification of the receptacle procedure developed by Benbasset, et al., Arch. int. Pharmacodyn., 122, 434 (1959). Male albino mice (19-21 g.) of the Charles River CD-1 strain are weighed and marked for identification. Five animals are normally used in each drug treatment group with each animal serving as its own control. For general screening purposes, new test agents are first administered at a dose of 56 mg./kg. intraperitoneally or subcutaneously, delivered in a volume of 10 ml./kg. Preceding drug treatment and at 0.5 and 2 hours post drug, each animal is placed in the cylinder. Each cylinder is provided with holes to allow for adequate ventilation and is closed by a round nylon plug through which the animal's tail protrudes. The cylinder is held in an upright position and the tail is completely immersed in the constant temperature waterbath (56° C.). The endpoint for each trial is an energetic jerk or twitch of the tail coupled with a motor response. In some cases, the endpoint may be less vigorous post drug. To prevent undue tissue damage, the trial is terminated and the tail removed from the waterbath within 10 seconds. The response latency is recorded in seconds to the nearest 0.5 second. A vehicle control and a standard of known potency are tested concurrently with screening candidates. If the activity of a test agent has not returned to baseline values at the 2-hour testing point, response latencies are determined at 4 and 6 hours. A final measurement is made at 24 hours if activity is still observed at the end of the test day.
as §1, §2, §3

[6] = test system: rat tail clamp; experiment: Haffner tail pinch procedure / rat tail clamp (RTC); format: in vivo, male albino rats, Charles River (Sprague-Dawley) CD strain; conditions: 1 hour, read-out: ANALGESIC ACTIVITY ED50, RTC 1 hour
Protocol: Tests Using Pressure Nociceptive Stimuli
Effect on the Haffner Tail Pinch Procedure
A modification of the procedure of Haffner, Experimentelle Prufung Schmerzstillender. Mittel Deutch Med. Wschr., 55, 731-732 (1929) is used to ascertain the effects of the test compound on aggressive attacking responses elicited by a stimulus pinching the tail. Male albino rats (50-60 b.) of the Charles River (Sprague-Dawley) CD strain are used. Prior to drug treatment, and again at 0.5, 1, 2 and 3 hours after treatment, a Johns Hopkins 2.5-inch "bulldog" clamp is clamped onto the root of the rat's tail. The endpoint at each trial is clear attacking and biting behavior directed toward the offending stimulus, with the latency for attack recorded in seconds. The clamp is removed in 30 seconds if attacking has not yet occurred, and the latency of response is recorded as 30 seconds. Morphine is active at 17.8 mg./kg. (i.p.).
as §1, §2, §3

[7] = test system: tail flick; experiment: Mouse tail flick analgesic testing (TF); format: in vivo, mice; conditions: Mus musculus; tail flick, mice
Description: as §4
(b) Mouse Tail Flick Analgesic Testing
Tail flick testing in mice is modified after D'Amour and Smith, J. Pharmacol. Exp. Ther., 72, 74-79 (1941), using controlled high intensity heat applied to the tail. Each mouse is placed in a snug-fitting metal cylinder, with the tail protruding through one end. This cylinder is arranged so that the tail lies flat over a concealed heat lamp. At the onset of testing, an aluminum flag over the lamp is drawn back allowing the light beam to pass through the slit and focus onto the end of the tail. A timer is simultaneously activated. The latency of a sudden flick of the tail is ascertained. Untreated mice usually react within 3-4 seconds after exposure to the lamp. The end point for protection is 10 seconds. Each mouse is tested at 0.5 and 2 hours after treatment with morphine and the test compound. Morphine has an MPE50 of 3.2-5.6 mg./kg. (s.c.).
as §1, §2, §3

[8] = test system: central nervous system activity; conditions: Loev et al. 1973; cited from earlier work

CCCCCCOc1cc(O)c2c(c1)OC(C)(C)C1=C2CC(C)CC1 (stereo not shown) [hexoxy]
biological activity on replacing the 3-pentyl group by alkoxy [1]: biological inactivity
hashish activity ([1]; at 10 to 20 mg./kg.): feeble hashish activity

CCCCCOc1cc(O)c2c(c1)OC(C)(C)C1=C2CC(C)CC1 (stereo not shown) [pentoxy]
biological activity on replacing the 3-pentyl group by alkoxy [1]: biological inactivity

CCCCCCCCOc1cc(O)c2c(c1)OC(C)(C)C1=C2CC(C)CC1 (stereo not shown) [octoxy]
biological activity on replacing the 3-pentyl group by alkoxy [1]: biological inactivity

CCCCOc1cc(O)c2c(c1)OC(C)(C)C1=C2CC(C)CC1 (stereo not shown) [butoxy]
biological activity on replacing the 3-pentyl group by alkoxy [1]: biological inactivity

CC(CCCc1ccccc1)Oc1cc(O)c2c(c1)OC(C)(C)[C@@H]1CC[C@@H](O)C[C@@H]21 (relative stereo) [OCH(CH3)(CH2)3C6 H5, dl-6aβ,7,8,9,10,10aα-hexahydro-1-hydroxy-6,6-dimethyl-3-(1-methyl-4-phenylbutoxy)-6H-dibenzo[b,d]pyran-9β-ol]
ED50 [2]: 0.11 mg/kg
ED50 [3]: 0.44 mg/kg
ED50 [4]: 0.76 mg/kg
ED50 [5]: 0.4 mg/kg
ED50 [6]: 1.9 mg/kg
ED50 [7]: 0.33 mg/kg

CCCCCC(C)Oc1cc(O)c2c(c1)OC(C)(C)C1=C2CC(C)CC1 (stereo not shown) [--OCH(CH3)C5 H11]
less active in central nervous system activity than the corresponding compound with the alkyl side chain directly attached [8]: 50%
times as active as the compound in which oxygen is replaced by methylene [8]: 5 times
